In patent US5763464A, “Retroviral agents containing anthranilamide, substituted benzamide and other subunits, and methods of using same” (The United States of America as represented by the …, priority 1995, dated 1998):
“Also recorded” adds a separate entry of the source. Where two headings read alike, the source gives them in different places.

Key:
[1] = tested on: HIV-1 (CEM cells chronically infected with HIV-1); test: Anti-retroviral activity in CEM cells chronically infected with HIV-1, soluble formazan assay; format: cell-based; settings: Human immunodeficiency virus 1, CCRF-CEM
Method: Using the soluble formazan assay described by Weislow et al. (J. Nat'l. Cancer Inst., 81, 577-586 (1989)), CEM cells chronically infected with HIV-1 were used to assay the anti-retroviral activity of test compounds described herein. The concentration of compound that inhibits 50% of viral activity (EC50; determined as described in Weislow et al. (1989), supra) and the inhibition constant (Ki, as defined in Example 7) for the compound were determined.

HIV-1 = settings: Example 13; literature values; cited from earlier work
in vitro = settings: human, cem cells
CEM cells = test: Toxicity (IC50) in CEM cells, soluble formazan assay
α-1 acid glycoprotein = test: In vitro activity in the presence of α-1 acid glycoprotein
[2] = Toxicity (IC50) in CEM cells, soluble formazan assay; settings: human, cem cells
[3] = comparison table, read-out: EC50

| SMILES | EC50 [1, 3] [nM] | EC50 (HIV-1) [nM] | selectivity ratio (in vitro) | IC50 (CEM cells; Homo sapiens, CCRF-CEM) [nM] | EC50 ([1]; Example 13, CEM cells) [nM] | EC50 ([1]; comparison table) [nM] | in vitro activity in presence of α-1 acid glycoprotein (α-1 acid glycoprotein) | selectivity ratio [2] | toxicity (from IC50/EC50) (CEM cells; Example 13) | IC50 (CEM cells; Example 13, unit inferred) [nM] | IC50 (CEM cells; comparison table) [nM] | EC50 ([1]; Example 13, CEM cells, read-out: EC50) [nM] |
| --- | --- | --- | --- | --- | --- | --- | --- | --- | --- | --- | --- | --- |
| CC(C)[C@H](NC(=O)N(C)Cc1ccccn1)C(=O)N[C@@H](Cc1ccccc1)[C@H](O)[C@H](O)[C@H](Cc1ccccc1)NC(=O)[C@@H](NC(=O)N(C)Cc1ccccn1)C(C)C [A-77003, reference compound] | 140 | 200 | > 71 | > 10000 | – | – | – | – | – | – | – | – |
| CC(C)C(NC(=O)OCc1ccccc1)C(=O)N[C@@H](Cc1ccccc1)[C@@H](O)[C@@H](O)[C@H](Cc1ccccc1)NC(=O)c1ccccc1NC(=O)OCc1ccccn1 (stereo partly shown) [DN-14] | – | – | – | > 100000 | 6.5 | 6 | not affected by the presence of α-1 acid glycoprotein; also recorded: unaffected in the presence of α-1 acid glycoprotein | > 16700 | not toxic | > 100000 | > 100000 | – |
| CSC[C@H](NC(=O)COc1cccc2cnccc12)C(=O)N[C@@H](Cc1ccccc1)[C@H](O)C(=O)N1CSC[C@H]1C(=O)NC(C)(C)C [KNI-272, reference compound] | 28 | – | > 3570 | > 100000 | – | – | – | – | – | – | – | 4.2 |
